From patent US8846699B2, “Quinazoline derivatives as a multiplex inhibitor and method for the preparation thereof” (Hanmi Pharm. Co., Ltd., priority 2005, dated 2014)

Experiments:
[1] = system: Human Umbilical Vein Endothelial Cell (HUVEC); experiment: Inhibitory effect on growth of human umbilical vein endothelial cell (HUVEC), MTS; type: cell-based; conditions: 10 ng/ml VEGF, absorbance 490 nm
Procedure: HUVECs (Young Science, Inc) were suspended in a culture medium, EBM-2 (Endothelial Basic Media, Cambrex) supplemented with 2% bovine serum (Cambrex) and auxiliary additives for HUVEC culture (e.g., EGF, VEGF, FGF, etc., Cambrex), inoculated into a culture flask coated with 1% gelatin, and incubated in an incubator at 37° C. under 5% CO2 and 100% humidity.
100 μl of 5% bovine serum medium containing 10 ng/ml of vascular endothelial growth factor (VEGF) and auxiliary additives, while excluding other growth factors was added to each well of a 96-well plate. […] DMSO (Dimethylsulfoxide) was used to dissolve the test compounds, and the final concentration of DMSO was less than 1%.
100 μl of the diluted cell solution was added to each well of the 96-well plate, which was incubated in an incubator for 96 hours.
Then, 20 μl of MTS ([…], Promega) solution was added to each well of the plate, and the plate was incubated in an incubator for 4 hours to induce discoloration. After 4 hours, the pellets were dissolved by way of a thorough shaking, and the absorbance at 490 nm was determined.

[2] = system: breast cancer cell line, SK-Br3; experiment: Inhibitory effect on growth of cancer cell line SK-Br3, SRB; type: cell-based; conditions: overexpressed EGFR2 (HER-2)
Excerpt: (§1) A skin cancer cell line, A431 (ATCC: CRL-1555), a breast cancer cell line, SK-Br3 (ATCC: HTB-30), and a colon and rectal cancer cell line, SW-620 (ATCC: CCL-227) were used to test the degrees of cancer cell growth inhibition using a culture medium, DEME (Dulbecco's Modified Eagle's Medium, JBI) including 4.5 g/l of glucose and 1.5 g/l of sodium bicarbonate and supplemented with 10% FBS (fetal bovine serum, JBI).
(§2) The cancer cell lines stored in a liquid nitrogen tank were each quickly thawed at 37° C., and centrifuged to remove the medium. The resulting cell pellet was mixed with a culture medium, incubated in a culture flask at 37° C. under 5% CO2 for 2 to 3 days, and the medium was removed. The remaining cells were washed with DPBS (Dulbecco's Phosphate Buffered Saline, JBI) and separated from the flask by using Trypsin-EDTA solution, and the separated cells were diluted with a culture medium to a concentration of 1.0×10^6 cells/ml in case of A431 and SW-620, and 2.0×10^6 cells/ml in case of SK-Br3. 100 μl of the diluted cell solution was added to each well of a 96-well plate, which was incubated at 37° C. under 5% CO2 for 1 day.
(§3) In case that the test compound was not soluble in DMSO, a small amount of 1% HCl was added thereto and treated in a 40° C. water bath for 30 mins until complete dissolution was attained. The test compound solution was diluted with a culture medium to a final concentration of 10 μM, and then diluted 10 times serially to 10^−4. The final concentration of DMSO was less than 1%, and the control compounds of Test Example 1 were used at a concentration of 0.0001 to 10 μM.
(§4) The medium was removed from each well of the 96-well microplate, 100 μl of a diluted test compound solution was added to each well holding cultured cells, and the microplate was incubated at 37° C. under 5% CO2 for 72 hours. After removing the medium from the plate, 50 μl of 10% trichloroacetic acid was added to each well, and the plate was kept at 37° C. for 1 hour to fix the cells to the bottom of the plate. 10% trichloroacetic acid was removed from each well, the plate was dried, 100 μl of an SRB (Sulforhodamine-B, Sigma) dye solution was added thereto, and reacted for 10 mins. The SRB dye solution was prepared by dissolving SRB in 1% acetic acid to a concentration of 0.4%. After removing the dye solution, the plate was washed with water, and dried. When the dye solution was not removed by water, 1% acetic acid was used.
(§5) 150 μl of 10 mM trisma base (Sigma) was added to each well, and the absorbance at 570 nm was determined with a microplate reader (Molecular device).

[3] = system: colon and rectal cancer cell line, SW-620; experiment: Inhibitory effect on growth of cancer cell line SW-620, SRB; type: cell-based; conditions: not having overexpressed EGFR and EGFR2
Excerpt: as §1, §2, §3, §4, §5

[4] = system: skin cancer cell line, A431; experiment: Inhibitory effect on growth of cancer cell line A431, SRB; type: cell-based; conditions: overexpressed EGFR1 (HER-1)
Excerpt: as §1, §2, §3, §4, §5

EGFR1 (HER-1) = EGFR1 (HER-1) (Homo sapiens (Human), UniProt P00533); experiment: EGFR1 (HER-1) enzyme assay, fluorescence polarization; type: biochemical; conditions: 100 μM ATP, poly(Glu, Tyr) substrate
Sequence of EGFR1 (HER-1) (P00533 25-1210): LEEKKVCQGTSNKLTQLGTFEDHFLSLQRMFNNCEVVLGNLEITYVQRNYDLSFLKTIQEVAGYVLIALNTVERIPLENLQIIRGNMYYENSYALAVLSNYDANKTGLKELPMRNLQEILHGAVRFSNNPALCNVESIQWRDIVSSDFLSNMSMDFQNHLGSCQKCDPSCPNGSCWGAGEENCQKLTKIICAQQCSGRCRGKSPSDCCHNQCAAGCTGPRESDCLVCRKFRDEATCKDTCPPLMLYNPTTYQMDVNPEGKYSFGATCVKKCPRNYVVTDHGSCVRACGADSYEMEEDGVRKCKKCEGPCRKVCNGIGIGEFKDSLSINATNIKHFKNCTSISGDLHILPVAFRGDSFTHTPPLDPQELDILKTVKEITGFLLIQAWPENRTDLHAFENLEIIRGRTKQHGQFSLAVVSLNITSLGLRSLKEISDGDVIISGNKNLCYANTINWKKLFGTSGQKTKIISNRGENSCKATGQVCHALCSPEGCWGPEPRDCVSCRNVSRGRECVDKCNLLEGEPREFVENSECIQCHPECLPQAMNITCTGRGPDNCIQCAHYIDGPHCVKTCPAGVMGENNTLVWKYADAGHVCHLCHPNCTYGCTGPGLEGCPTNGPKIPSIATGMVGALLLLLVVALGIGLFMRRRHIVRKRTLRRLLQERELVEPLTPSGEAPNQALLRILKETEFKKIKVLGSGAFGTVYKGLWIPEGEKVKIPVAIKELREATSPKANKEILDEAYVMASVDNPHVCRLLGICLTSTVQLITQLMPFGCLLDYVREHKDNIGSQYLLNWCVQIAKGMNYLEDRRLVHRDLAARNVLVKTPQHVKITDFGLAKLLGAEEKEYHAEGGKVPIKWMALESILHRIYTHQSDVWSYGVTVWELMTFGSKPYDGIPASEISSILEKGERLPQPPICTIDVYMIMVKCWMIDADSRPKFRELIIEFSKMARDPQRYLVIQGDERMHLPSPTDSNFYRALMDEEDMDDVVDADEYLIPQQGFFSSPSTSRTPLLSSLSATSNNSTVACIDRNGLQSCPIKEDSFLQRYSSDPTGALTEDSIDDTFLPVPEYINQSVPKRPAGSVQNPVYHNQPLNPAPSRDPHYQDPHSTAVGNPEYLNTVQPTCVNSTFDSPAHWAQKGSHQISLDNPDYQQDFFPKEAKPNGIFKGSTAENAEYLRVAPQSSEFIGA

VEGFR2 (KDR) = VEGFR2 (KDR) (Homo sapiens (Human), UniProt P35968); experiment: VEGFR2 (KDR) enzyme assay, fluorescence polarization; type: biochemical; conditions: 5 μM ATP, poly(Glu, Tyr) substrate
Sequence of VEGFR2 (KDR) (P35968 20-1356): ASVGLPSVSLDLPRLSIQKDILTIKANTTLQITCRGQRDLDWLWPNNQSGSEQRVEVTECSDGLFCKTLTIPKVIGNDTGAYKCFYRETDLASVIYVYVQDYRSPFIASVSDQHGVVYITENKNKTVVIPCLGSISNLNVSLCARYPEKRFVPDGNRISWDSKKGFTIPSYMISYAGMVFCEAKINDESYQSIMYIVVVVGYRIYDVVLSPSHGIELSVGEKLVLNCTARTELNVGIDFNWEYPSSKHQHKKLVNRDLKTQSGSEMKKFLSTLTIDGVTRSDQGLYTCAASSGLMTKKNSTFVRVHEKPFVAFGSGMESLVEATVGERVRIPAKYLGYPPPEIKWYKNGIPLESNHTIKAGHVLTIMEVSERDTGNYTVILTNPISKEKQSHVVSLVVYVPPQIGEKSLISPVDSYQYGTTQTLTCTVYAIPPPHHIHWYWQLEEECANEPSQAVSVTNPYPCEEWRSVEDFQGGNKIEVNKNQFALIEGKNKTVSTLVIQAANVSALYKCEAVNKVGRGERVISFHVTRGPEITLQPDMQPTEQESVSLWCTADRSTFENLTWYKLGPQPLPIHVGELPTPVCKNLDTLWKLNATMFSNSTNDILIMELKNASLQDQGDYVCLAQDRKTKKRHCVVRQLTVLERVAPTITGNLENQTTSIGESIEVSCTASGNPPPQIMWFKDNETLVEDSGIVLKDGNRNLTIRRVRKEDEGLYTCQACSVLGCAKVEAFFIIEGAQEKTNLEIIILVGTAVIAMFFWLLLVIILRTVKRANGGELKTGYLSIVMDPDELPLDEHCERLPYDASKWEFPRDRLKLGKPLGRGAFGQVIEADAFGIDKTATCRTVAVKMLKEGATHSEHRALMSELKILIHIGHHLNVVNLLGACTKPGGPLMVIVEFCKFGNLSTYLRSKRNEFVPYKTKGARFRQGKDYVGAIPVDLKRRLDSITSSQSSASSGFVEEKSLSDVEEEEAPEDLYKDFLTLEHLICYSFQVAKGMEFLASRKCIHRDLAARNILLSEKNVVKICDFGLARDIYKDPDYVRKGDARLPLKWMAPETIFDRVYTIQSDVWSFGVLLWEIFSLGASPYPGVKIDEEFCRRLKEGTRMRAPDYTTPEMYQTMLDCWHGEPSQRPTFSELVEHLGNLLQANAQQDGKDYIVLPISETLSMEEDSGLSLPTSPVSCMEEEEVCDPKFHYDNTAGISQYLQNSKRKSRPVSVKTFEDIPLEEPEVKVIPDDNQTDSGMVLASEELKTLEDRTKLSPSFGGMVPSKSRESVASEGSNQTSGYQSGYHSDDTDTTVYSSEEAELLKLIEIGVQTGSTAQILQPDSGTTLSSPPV
Procedure: VEGFR2 (KDR, Proquinase) enzyme assay (auto-phosphorylation assay) was carried out by using Tyrosine Kinase Assay Kit Green (Panvera). The entire assay was conducted in accordance with VEGFR PTK inhibitor cellular activity test S.O.P.
A typical kinase inhibition reaction requires a protein tyrosine kinase, a suitable buffer solution system, a peptide substrate and ATP. In the present VEGFR tyrosine kinase assay, a buffer solution system containing 20 mM HEPES (pH 7.4), 5 mM MgCl2 and 2 mM MnCl2; 50 μM Na3VO4; 200 ng/10 μl VEGFR (Proquinase); 5 μM ATP; and 10 ng/ml poly(Glu, Tyr) (4:1, Sigma) as a substrate were used.
The compounds of Test Example 1 were used as control compounds at a concentration of 0.0001 to 10 μM. After 10 min, 10 μl of poly(Glu, Tyr) as a substrate was added to each well, and 10 μl of ATP was added thereto to initiate kinase reaction. The plate was incubated at room temperature for 1 hour, and 10 μl of 100 mM EDTA was added to each well to terminate the kinase reaction.
The added EDTA was mixed for 5 min. Thereafter, 10 μl of 10× anti-phosphotyrosine antibody (Panvera), 10 μl of 10×PTK Green Tracer (Panvera) and 30 μl of FP dilution buffer (Panvera) were added thereto, and the plate was incubated in a dark room at room temperature for 30 min.

Compound: Clc1ccc(Nc2nnc(Cc3ccncc3)c3ccccc23)cc1 [Control 1, PTK787, reference compound]
- IC50 ([1]; Homo sapiens, 96 h): 40 nM
- IC50 ([2]; Homo sapiens, SK-BR-3, 72 h): 10000 nM
- IC50 ([3]; Homo sapiens, 72 h): 10000 nM
- IC50 ([4]; Homo sapiens, A-431, 72 h): 10000 nM

Compound: COc1cc2c(Nc3ccc(Br)cc3F)ncnc2cc1OCC1CCN(C)CC1 [Control 2, ZD6474, reference compound]
- IC50 ([1]; Homo sapiens, 96 h): 70 nM
- IC50 ([2]; Homo sapiens, SK-BR-3, 72 h): 2600 nM
- IC50 ([3]; Homo sapiens, 72 h): 4500 nM
- IC50 ([4]; Homo sapiens, A-431, 72 h): 28 nM

Compound: C=C(C)C(=O)Nc1cc2c(Nc3ccc(Br)cc3F)ncnc2cc1OCCNC(C)=O [Example 76, N-[7-(2-acetylamino-ethoxy)-4-(4-bromo-2-fluoro-phenylamino)-quinazolin-6-yl]-2-methyl-acrylamide]
- IC50 (EGFR1 (HER-1)): 1020 nM
- IC50 ([2]; Homo sapiens, SK-BR-3, 72 h): 6340 nM
- IC50 ([4]; Homo sapiens, A-431, 72 h): 2880 nM

Compound: C=CC(=O)N(C)c1cc2c(Nc3ccc(Br)cc3F)ncnc2cc1OCCNC(C)=O [Example 78, N-[7-(2-acetylamino-ethoxy)-4-(4-bromo-2-fluoro-phenylamino)-quinazolin-6-yl]-N-methyl-acrylamide]
- IC50 (EGFR1 (HER-1)): 389 nM
- IC50 ([2]; Homo sapiens, SK-BR-3, 72 h): 1210 nM
- IC50 ([4]; Homo sapiens, A-431, 72 h): 396 nM

Compound: C=CC(=O)Nc1cc2c(Nc3ccc(Br)cc3F)ncnc2cc1OC1CCN(C(C)=O)C1 (centres unmarked) [Example 88, N-[7-(1-acetyl-pyrrolidin-3-yloxy)-4-(4-bromo-2-fluoro-phenylamino)-quinazolin-6-yl]-acrylamide]
- IC50 (EGFR1 (HER-1)): 94 nM
- IC50 ([1]; Homo sapiens, 96 h): 10000 nM
- IC50 ([2]; Homo sapiens, SK-BR-3, 72 h): 297 nM
- IC50 ([3]; Homo sapiens, 72 h): 723 nM
- IC50 ([4]; Homo sapiens, A-431, 72 h): 99 nM

Compound: C=CC(=O)Nc1cc2c(Nc3ccc(Br)cc3F)ncnc2cc1OC1CCCN(C(C)=O)C1 (centres unmarked) [Example 89, N-[7-(1-acetyl-piperidin-3-yloxy)-4-(4-bromo-2-fluoro-phenylamino)-quinazolin-6-yl]-acrylamide]
- IC50 (EGFR1 (HER-1)): 128 nM
- IC50 ([1]; Homo sapiens, 96 h): 10000 nM
- IC50 ([2]; Homo sapiens, SK-BR-3, 72 h): 965 nM
- IC50 ([3]; Homo sapiens, 72 h): 10000 nM
- IC50 ([4]; Homo sapiens, A-431, 72 h): 368 nM

Compound: C=CC(=O)Nc1cc2c(Nc3ccc(Br)cc3F)ncnc2cc1OCCNC(=O)C1CCCN1C (centres unmarked) [Example 98, 1-methyl-pyrrolidine-2-carboxylic acid {2-[6-acryloylamino-4-(4-bromo-2-fluoro-phenylamino)-quinazolin-7-yloxy]-ethyl}-amide]
- IC50 (EGFR1 (HER-1)): 69 nM
- IC50 ([2]; Homo sapiens, SK-BR-3, 72 h): 179 nM
- IC50 ([3]; Homo sapiens, 72 h): 9570 nM
- IC50 ([4]; 72 hours): 78 nM

Compound: C=CC(=O)Nc1cc2c(Nc3ccc(Br)cc3F)ncnc2cc1OCCNC(=O)C1CCCN1C (centres unmarked) [Example 100, 1-methyl-pyrrolidine-2-carboxylic acid {2-[6-acryloylamino-4-(4-bromo-2-fluoro-phenylamino)-quinazolin-7-yloxy]-ethyl}-amide]
- IC50 (EGFR1 (HER-1)): 24 nM
- IC50 ([2]; 72 hours): 101 nM
- IC50 ([3]; 72 hours): 10000 nM
- IC50 ([4]; 72 hours): 25 nM

Compound: C=CC(=O)Nc1cc2c(Nc3ccc(F)c(Cl)c3)ncnc2cc1OCCNC(C)=O [Example 111, N-[7-(2-acetylamino-ethoxy)-4-(3-chloro-4-fluoro-phenylamino)-quinazolin-6-yl]-acrylamide]
- IC50 (EGFR1 (HER-1)): 12 nM
- IC50 ([2]; Homo sapiens, SK-BR-3, 72 h): 26 nM
- IC50 ([3]; Homo sapiens, 72 h): 8530 nM
- IC50 ([4]; Homo sapiens, A-431, 72 h): 9 nM

Compound: C=CC(=O)Nc1cc2c(Nc3ccc(Br)cc3C(F)(F)F)ncnc2cc1OCCNC(C)=O [Example 114, N-[7-(2-acetylamino-ethoxy)-4-(4-bromo-2-trifluoromethyl-phenylamino)-quinazolin-6-yl]-acrylamide]
- IC50 (EGFR1 (HER-1)): 456 nM
- IC50 ([2]; Homo sapiens, SK-BR-3, 72 h): 897 nM
- IC50 ([4]; Homo sapiens, A-431, 72 h): 468 nM

Compound: C=CC(=O)Nc1cc2c(Nc3cc(C(=O)NOC)c(Br)cc3F)ncnc2cc1OCCNC(C)=O [Example 131, 5-[7-(2-acetylamino-ethoxy)-6-acryloylamino-quinazolin-4-ylamino]-2-bromo-4-fluoro-N-methoxy-benzamide]
- IC50 ([1]; Homo sapiens, 96 h): 965 nM
- IC50 (VEGFR2 (KDR)): 756 nM

Compound: C=CC(=O)Nc1cc2c(Nc3cc(OC)c(Cl)cc3Cl)ncnc2cc1OCCNC(C)=O [Example 132, N-[7-(2-acetylamino-ethoxy)-4-(2,4-dichloro-5-methoxy-phenylamino)-quinazolin-6-yl]-acrylamide]
- IC50 (EGFR1 (HER-1)): 42 nM
- IC50 ([2]; Homo sapiens, SK-BR-3, 72 h): 36 nM
- IC50 ([3]; Homo sapiens, 72 h): 2700 nM
- IC50 ([4]; Homo sapiens, A-431, 72 h): 47 nM

Compound: C=CC(=O)Nc1cc2c(Nc3ccc(Br)c(Cl)c3)ncnc2cc1OCCNC(=O)CN(C)C [Example 152]
- IC50 (EGFR1 (HER-1)): 75 nM
- IC50 ([1]; 96 hours): 10000 nM
- IC50 ([2]; 72 hours): 647 nM
- IC50 ([3]; 72 hours): 10000 nM
- IC50 ([4]; 72 hours): 99 nM

Compound: C=CC(=O)Nc1cc2c(Nc3ccc(Br)cc3F)ncnc2cc1OCC(C)(C)NC(=O)CN(C)C [Example 154, N-{4-(4-bromo-2-fluoro-phenylamino)-7-[2-(2-dimethylamino-acetylamino)-2-methyl-propoxy]-quinazolin-6-yl}-acrylamide]
- IC50 (EGFR1 (HER-1)): 222 nM
- IC50 ([2]; Homo sapiens, SK-BR-3, 72 h): 240 nM
- IC50 ([3]; Homo sapiens, 72 h): 9130 nM
- IC50 ([4]; Homo sapiens, A-431, 72 h): 248 nM

Compound: C=CC(=O)Nc1cc2c(Nc3ccc(Br)cc3F)ncnc2cc1OCC(NC(=O)CN(C)C)C(C)C (centres unmarked) [Example 156, N-{4-(4-bromo-2-fluoro-phenylamino)-7-[2-(2-dimethylamino-acetylamino)-3-methyl-buthoxy]-quinazolin-6-yl}-acrylamide]
- IC50 (EGFR1 (HER-1)): 149 nM
- IC50 ([1]; 96 hours): 10000 nM
- IC50 ([2]; 72 hours): 462 nM
- IC50 ([3]; 72 hours): 3270 nM
- IC50 ([4]; 72 hours): 196 nM

Compound: C=CC(=O)Nc1cc2c(Nc3ccc(Br)c(Cl)c3F)ncnc2cc1OC[C@H](C)NC(=O)CN(C)C [Example 158, (S)—N-4-(4-bromo-3-chloro-2-fluoro-phenylamino)-7-[2-(2-dimethylamino-acetylamino)-propoxy]-quinazolin-6-yl-acrylamide]
- IC50 (EGFR1 (HER-1)): 23.1 nM
- IC50 ([1]; 96 hours): 10000 nM
- IC50 ([2]; 72 hours): 381 nM
- IC50 ([3]; 72 hours): 5150 nM
- IC50 ([4]; 72 hours): 259 nM

Compound: C=CC(=O)Nc1cc2c(Nc3cc(OC)c(Cl)cc3OC)ncnc2cc1OCCNC(=O)CN(C)C [Example 166, N-{4-(4-chloro-2,5-dimethoxy-phenylamino)-7-[2-(2-dimethylamino-acetylamino)-ethoxy]-quinazolin-6-yl}-acrylamide]
- IC50 (EGFR1 (HER-1)): 14 nM
- IC50 ([2]; Homo sapiens, SK-BR-3, 72 h): 27 nM
- IC50 ([3]; Homo sapiens, 72 h): 5650 nM
- IC50 ([4]; Homo sapiens, A-431, 72 h): 30 nM
